Laboratory results published in article PMC6917776, “Discovery of a chemical probe for PRDM9” (Nature Communications, 2019).
Where “and” joins values, the source holds several entries; their conditions need not be identical. Identical values can stand only once.

Key:
[1] = target: T1, Histamine H3 (Homo sapiens, UniProt Q9Y5N1); experiment: Eurofins Panlabs panel, radioligand binding; details: at 10 µM
T1 construct: NIMH Psychoactive Drug Screening Program, University of North Carolina at Chapel Hill

[2] = target: T2, Biotinylated PRDM9 (amino acids 195–415) (Homo sapiens, UniProt Q9NQV7); experiment: Surface plasmon resonance (SPR) binding; set-up: key to SPR steady state response, raw data (Y): response units (RU); details: for SPR steady state response, raw data (Y): 350 µM SAM, Exp1–4
T2 construct: Biotinylated PRDM9 (amino acids 195–415)
T2 sequence (Q9NQV7 195-415): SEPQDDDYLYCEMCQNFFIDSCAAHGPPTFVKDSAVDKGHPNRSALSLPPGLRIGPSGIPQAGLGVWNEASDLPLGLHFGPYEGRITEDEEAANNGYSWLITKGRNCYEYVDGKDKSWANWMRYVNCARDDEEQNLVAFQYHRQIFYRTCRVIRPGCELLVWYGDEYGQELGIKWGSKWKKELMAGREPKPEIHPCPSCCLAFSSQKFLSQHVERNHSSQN
Description: Biotinylated PRDM9 (amino acids 195–415) was immobilized on the flow cell of a SA sensor chip in 1x HBS-EP buffer, yielding 5700 RU. Using the buffer with 0.5% DMSO, 350 µM SAM and single cycle kinetic with 60 s contact time and a dissociation time of 120 s at a flow rate of 75 µL/min. […] Only binding to PRDM9 and PRDM7 with ∆Tm of higher than 2 °C was observed. […] All (c–e) experiments were performed in triplicate (n = 3) and data points are presented as average ± standard deviation. Source data are provided as a Source Data file.
Binding studies by SPR were performed using a Biacore T200 (GE Health Sciences Inc.) at 20 °C. Biotinylated PRDM9 was captured onto a flow cell of a streptavidin-conjugated SA chip at approximately 5000 response units (RU) according to manufacturer’s protocol while another flow cell was left empty for reference subtraction. […]
in the presence of SAM are the same as presented in figure 2 (a and b) within the main text. The experiments were performed in quadruplicate in the presence of 350 µM SAM (5x Km) or 750 µM SAH (5x IC50). Biotinylated PRDM9 (195-415aa) was immobilized on the flow cell of an SA sensor chip in 1x HBS-EP buffer, yielding 5700 RU. Using the buffer with 0.5% DMSO, 350 µM SAM or 750 µM SAH and single cycle kinetics with 60 s contact time and a dissociation time of 120 s at a flow rate of 75 µL/min. […]
and at 20 µM in the presence of SAH as the highest concentration. Dilution factor of 0.33 was used to yield 5 concentrations.

T1 sequence (Q9Y5N1 whole entry): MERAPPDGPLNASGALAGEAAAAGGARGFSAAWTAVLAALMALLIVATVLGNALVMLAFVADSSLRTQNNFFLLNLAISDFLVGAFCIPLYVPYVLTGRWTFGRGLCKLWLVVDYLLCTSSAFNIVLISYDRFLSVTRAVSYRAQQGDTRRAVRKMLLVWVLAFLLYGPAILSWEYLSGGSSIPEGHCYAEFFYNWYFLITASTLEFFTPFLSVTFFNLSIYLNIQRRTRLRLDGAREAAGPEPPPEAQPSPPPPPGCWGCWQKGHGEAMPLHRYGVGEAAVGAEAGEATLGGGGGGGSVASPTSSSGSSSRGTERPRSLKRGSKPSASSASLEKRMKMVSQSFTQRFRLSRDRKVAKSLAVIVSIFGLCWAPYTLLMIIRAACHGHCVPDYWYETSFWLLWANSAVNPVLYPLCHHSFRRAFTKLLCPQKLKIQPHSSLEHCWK

COc1cc(OC)cc(-c2noc(N3CCN(C)C4(CCN(c5ccnc(C)c5)CC4)C3)n2)c1 [MRK-740]
Binding [1]: > 50% | Binding to PRDM9 in the presence of SAH, compared with SAM (in words) ([2]; 750 µM SAH versus 350 µM SAM): dramatically weaker | SPR steady state response, raw data (Y) ([2]; X = 1.11E-07 (concentration, unit not given)): 22.0666 and 21.2987 and 20.382 and 19.6958 | SPR steady state response, raw data (Y) ([2]; X = 1.23E-08 (concentration, unit not given)): 5.847 and 5.521 and 5.156 and 5.206 | SPR steady state response, raw data (Y) ([2]; X = 3.70E-08 (concentration, unit not given)): 12.6421 and 12.2536 and 11.7778 and 11.3155 | kon ([2]; in the presence of 350 µM SAM): 1.2e+06 ± 1e+11 M⁻¹ s⁻¹ | Kd ([2]; in the presence of 350 µM SAM, n = 4, read-out: Kd, SPR kinetic fit): 0.087 ± 0.005 µM
